Assay results published in ChEMBL document CHEMBL4270497, “Recent advances (2015-2016) in anticancer hybrids” (Eur J Med Chem, 2017).
pIC50: −log10 of the molar value. Values after ≈ are worked out from the molar mass of the structure shown. Blank lines part the entries; values can stand above or below the molecule they belong to.

What was measured:
KB = experiment: Cytotoxicity in human KB cells assessed as reduction in cell viability; assay type: functional, cell-based
A549 [1] = experiment: Antiproliferative activity against human A549 cells incubated for 48 hrs by MTT assay; assay type: functional, cell-based; conditions: A549, 48 h
K562 [2] = experiment: Antiproliferative activity against human K562 cells incubated for 48 hrs by MTT assay; assay type: functional; conditions: K562, 48 h
HeLa [3] = experiment: Antiproliferative activity against human HeLa cells incubated for 48 hrs by MTT assay; assay type: functional, cell-based
PC-3 [4] = experiment: Antiproliferative activity against human PC3 cells incubated for 48 hrs by MTT assay; assay type: functional; conditions: PC-3, 48 h
Bel-7402 = experiment: Antiproliferative activity against human Bel7402 cells incubated for 48 hrs by MTT assay; assay type: functional; conditions: Bel-7402, 48 h
MCF7 [5] = experiment: Antiproliferative activity against human MCF7 cells incubated for 24 hrs by MTT assay; assay type: functional, cell-based; conditions: MCF7, 24 h
HeLa [6] = experiment: Antiproliferative activity against human HeLa cells incubated for 24 hrs by MTT assay; assay type: functional, cell-based
A549 [7] = experiment: Antiproliferative activity against human A549 cells incubated for 24 hrs by MTT assay; assay type: functional, cell-based; conditions: A549, 24 h
HCT-116 = experiment: Antiproliferative activity against human HCT116 cells incubated for 48 hrs by MTT assay; assay type: functional, cell-based; conditions: HCT-116, 48 h
MCF7 [8] = experiment: Antiproliferative activity against human MCF7 cells incubated for 48 hrs by MTT assay; assay type: functional, cell-based; conditions: MCF7, 48 h
A549 [9] = experiment: Cytotoxicity in human A549 cells assessed a reduction in cell viability incubated for 48 hrs by MTT assay; assay type: functional, cell-based; conditions: A549, 48 h
HT-29 [10] = experiment: Cytotoxicity in human HT-29 cells assessed as reduction in cell viability incubated for 48 hrs by MTT assay; assay type: functional, cell-based; conditions: HT-29, 48 h
A549 [11] = experiment: Cytotoxicity in human A549 cells assessed as reduction in cell viability incubated for 48 hrs by MTT assay; assay type: functional, cell-based; conditions: A549, 48 h
PC-3 [12] = experiment: Cytotoxicity in human PC3 cells assessed as reduction in cell viability incubated for 48 hrs by MTT assay; assay type: functional, cell-based; conditions: PC-3, 48 h
U-87 MG = experiment: Cytotoxicity in human U87MG cells assessed as reduction in cell viability incubated for 48 hrs by MTT assay; assay type: functional, cell-based, U-87MG ATCC
MDA-MB-231 [13] = experiment: Growth inhibition of human MDA-MB-231 cells at 10 uM; assay type: functional; conditions: read-out: GI
HEK293 [14] = experiment: Cytotoxicity in HEK293 cells at 100 uM by MTT assay; assay type: cell-based; conditions: human, hek293, 100 µM
A498 = experiment: Growth inhibition of human A498 cells at 10 uM; assay type: functional; conditions: read-out: GI
DU-145 = experiment: Antiproliferative activity against human DU145 cells incubated for 48 hrs by MTT assay; assay type: functional, cell-based; conditions: DU-145, 48 h
SK-OV-3 = experiment: Antiproliferative activity against human SKOV3 cells incubated for 48 hrs by MTT assay; assay type: functional, cell-based; conditions: SK-OV-3, 48 h
HUVEC = experiment: Antiproliferative activity against human HUVEC cells incubated for 48 hrs by MTT assay; assay type: functional, cell-based
MDA-MB-231 [15] = experiment: Antiproliferative activity against human MDA-MB-231 cells incubated for 48 hrs by MTT assay; assay type: functional, cell-based; conditions: MDA-MB-231, 48 h
HT-29 [16] = experiment: Antiproliferative activity against human HT-29 cells incubated for 48 hrs by MTT assay; assay type: functional, cell-based; conditions: HT-29, 48 h
HEK293 [17] = experiment: Antiproliferative activity against HEK293 cells incubated for 48 hrs by MTT assay; assay type: cell-based; conditions: Homo sapiens, HEK293, 48 h
K562 [18] = experiment: Cytotoxicity in human K562 cells assessed as reduction in cell viability incubated for 48 to 72 hrs by trypan blue dye exclusion assay; assay type: functional, cell-based
REH = experiment: Cytotoxicity in human REH cells assessed as reduction in cell viability incubated for 48 to 72 hrs by trypan blue dye exclusion assay; assay type: functional, cell-based
[19] = biological target: Epidermal growth factor receptor (Homo sapiens, UniProt P00533); experiment: Inhibition of 6x-His-tagged human EGFR cytoplasmic domain (645 to 1186 amino acids) assessed as reduction in autophosphorylation pre-incubated for 10 mins and measured after 1 hr by DELFIA/time-resolved fluorometry
B16-F10 = experiment: Antiproliferative activity against mouse B16F10 cells incubated for 48 hrs by MTT assay; assay type: functional, cell-based; conditions: B16-F10, 48 h
MCF7 [20] = experiment: Cytotoxicity in human MCF7 cells assessed as reduction in cell viability incubated for 48 hrs by MTT assay; assay type: functional, cell-based; conditions: MCF7, 48 h
MDA-MB-231 [21] = experiment: cells; conditions: Homo sapiens, MDA-MB-231, 24 h
Description: Cytotoxicity in human MDA-MB-231 cells assessed as reduction in cell viability incubated for 24 hrs by MTT assay

Sequence of Epidermal growth factor receptor (P00533 whole entry, the tested form may be a part): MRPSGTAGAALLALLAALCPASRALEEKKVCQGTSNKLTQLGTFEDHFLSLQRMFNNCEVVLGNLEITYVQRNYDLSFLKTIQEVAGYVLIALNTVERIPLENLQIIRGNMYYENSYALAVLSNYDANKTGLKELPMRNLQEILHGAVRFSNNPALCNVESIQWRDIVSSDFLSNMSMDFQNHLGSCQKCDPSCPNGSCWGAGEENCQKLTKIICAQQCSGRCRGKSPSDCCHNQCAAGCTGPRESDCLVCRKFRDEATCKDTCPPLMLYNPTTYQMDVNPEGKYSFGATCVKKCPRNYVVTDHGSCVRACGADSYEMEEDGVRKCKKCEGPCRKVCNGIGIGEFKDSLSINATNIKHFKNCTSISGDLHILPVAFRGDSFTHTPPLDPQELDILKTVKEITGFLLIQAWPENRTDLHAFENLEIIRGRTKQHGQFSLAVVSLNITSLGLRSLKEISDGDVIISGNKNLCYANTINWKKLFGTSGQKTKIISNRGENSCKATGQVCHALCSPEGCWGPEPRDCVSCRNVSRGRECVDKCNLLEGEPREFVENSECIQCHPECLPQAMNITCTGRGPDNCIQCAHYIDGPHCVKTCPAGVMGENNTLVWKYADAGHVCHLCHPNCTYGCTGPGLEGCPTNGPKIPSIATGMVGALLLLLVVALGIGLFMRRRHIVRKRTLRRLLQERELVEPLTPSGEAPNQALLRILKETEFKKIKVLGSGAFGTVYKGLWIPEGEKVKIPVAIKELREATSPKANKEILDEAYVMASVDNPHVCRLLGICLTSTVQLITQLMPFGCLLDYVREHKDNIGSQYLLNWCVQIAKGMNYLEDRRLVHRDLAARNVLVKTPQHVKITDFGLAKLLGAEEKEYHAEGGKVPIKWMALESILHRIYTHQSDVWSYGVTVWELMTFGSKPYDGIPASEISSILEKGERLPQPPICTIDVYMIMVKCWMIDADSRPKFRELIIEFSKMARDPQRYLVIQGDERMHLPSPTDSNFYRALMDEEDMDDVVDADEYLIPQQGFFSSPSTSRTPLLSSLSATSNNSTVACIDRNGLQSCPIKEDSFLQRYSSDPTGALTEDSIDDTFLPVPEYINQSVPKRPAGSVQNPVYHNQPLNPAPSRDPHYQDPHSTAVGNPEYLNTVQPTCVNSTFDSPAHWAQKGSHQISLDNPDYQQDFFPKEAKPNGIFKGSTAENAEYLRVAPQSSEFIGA

SMILES: O=C(/C=C/c1ccc(/C=C/C(=O)c2cccc3c2C(=O)c2ccccc2C3=O)cc1)c1ccccc1
IC50 (KB): 0.66 mg/L (≈ 1.41 µM)

GI50 (A549 [1]): 0.026 to 0.035 µM
GI50 (K562 [2]): 0.026 to 0.035 µM
GI50 (HeLa [3]): 0.026 to 0.035 µM
GI50 (PC-3 [4]): 0.026 to 0.035 µM
GI50 (Bel-7402): 0.026 to 0.035 µM
SMILES: COc1cc2c(c(OC)c1OC)C/C(=C\c1cccc3[nH]ccc13)C2=O

pIC50 (MCF7 [5]): 6.64
pIC50 (HeLa [6]): 6.49
pIC50 (A549 [7]): 6.42
SMILES: COc1ccc(Cc2nnc(COc3ncnc4ccccc34)o2)cc1OC

pIC50 (A549 [1]): 5.89 to 6.29
pIC50 (HCT-116): 5.89 to 6.29
pIC50 (HeLa [3]): 5.89 to 6.29
pIC50 (MCF7 [8]): 5.89 to 6.29
SMILES: COc1ccc(N/C=C/C(=O)c2cccnc2Nc2cc(OC)c(OC)c(OC)c2)cc1

SMILES: COc1ccc(C(=O)/C=C/c2cc3c([nH]c4ccccc43)c(-c3ccc(OC)c(OC)c3)n2)cc1
pIC50 (A549 [9]): > 5.00

SMILES: COc1cc(-c2nc(/C=C/C(=O)c3cc(OC)c(OC)c(OC)c3)cc3c2[nH]c2ccccc23)ccc1F
pIC50 (A549 [9]): > 5.00

SMILES: COc1ccc(Cn2cc(C(=O)c3cn(-c4ccccc4)nc3-c3ccc(Cl)cc3)nn2)cc1OC
pIC50 (HT-29 [10]): 5.62
pIC50 (A549 [11]): 5.71
pIC50 (PC-3 [12]): 5.43
pIC50 (U-87 MG): 6.07

SMILES: COc1ccc(-c2nc(/C=C/C(=O)c3ccc([N+](=O)[O-])cc3)cc3c2[nH]c2ccccc23)cc1OC
pIC50 (A549 [9]): > 5.00

SMILES: COc1ccc(C(=O)/C=C/c2cc3c([nH]c4ccccc43)c(-c3ccc(F)cc3)n2)cc1
pIC50 (A549 [9]): > 5.00

SMILES: COc1ccc(-c2cn3c(-c4ccc(OC)cc4)cnc3c(Oc3ccc4c(C)cc(=O)oc4c3)n2)cc1
inhibition of growth at 10 µM (MDA-MB-231 [13]): 93%
Activity (HEK293 [14]): 17%
inhibition of growth at 10 µM (A498): 90%

pIC50 (DU-145): 7.70
pIC50 (SK-OV-3): 8.47
pIC50 (MDA-MB-231 [15]): 8.85
SMILES: CC12CCC(OC(=O)CCC(=O)OCCOc3no[n+]([O-])c3S(=O)(=O)c3ccccc3)CC1=CCC1C2CCC2(C)c3c(cnn3-c3ccccc3)CC12 (stereo unspecified)
pIC50 (HUVEC): 8.46

SMILES: Nc1ccc(C(=O)/C=C/c2cc3c([nH]c4ccccc43)c(-c3ccc(F)cc3)n2)cc1
pIC50 (A549 [9]): > 5.00

pIC50 (DU-145): 7.00
pIC50 (A549 [1]): 5.96
pIC50 (HT-29 [16]): 6.70
SMILES: O=C(c1cn(Cc2cccc(Oc3ccccc3)c2)nn1)c1cccnc1Nc1ccc(F)cc1
pIC50 (HEK293 [17]): 4.22

SMILES: COc1cc(C(=O)N/N=C2\C(=O)Nc3ccc(C)cc32)cc(OC)c1OC
pIC50 (K562 [18]): 5.70
pIC50 (REH): 6.30

SMILES: COc1cc(-c2nc(/C=C/C(=O)c3ccc([N+](=O)[O-])cc3)cc3c2[nH]c2ccccc23)ccc1F
pIC50 (A549 [9]): > 5.00

pIC50 [19]: 8.05
pIC50 (B16-F10): 7.05
pIC50 (HeLa [3]): 6.54
pIC50 (MCF7 [8]): 6.25
SMILES: O=C1CSC(N2N=C(c3ccncc3)CC2c2ccc(Br)cc2)=N1 (stereo unspecified)

SMILES: COc1ccc(C(=O)/C=C/c2cc3c([nH]c4ccccc43)c(-c3ccc(F)c(OC)c3)n2)cc1
pIC50 (A549 [9]): > 5.00

SMILES: COc1cc(-c2nc(/C=C/C(=O)c3ccc(N)cc3)cc3c2[nH]c2ccccc23)cc(OC)c1OC
pIC50 (A549 [9]): > 5.00

SMILES: O=Cc1c(-c2cc3cc(Br)ccc3oc2=O)[nH]c2ccccc12
pIC50 (MCF7 [20]): 5.13

SMILES: COc1cc(-c2nc(/C=C/C(=O)c3ccc([N+](=O)[O-])cc3)cc3c2[nH]c2ccccc23)cc(OC)c1OC
pIC50 (A549 [9]): > 5.00

SMILES: COc1cc(C(=O)/C=C/c2cc3c([nH]c4ccccc43)c(-c3ccc(F)cc3)n2)cc(OC)c1OC
pIC50 (A549 [9]): > 5.00

pIC50 (MDA-MB-231 [21]): 5.49
SMILES: CCCC(CC)NC(=O)c1c(C)[nH]c(/C=C2\C(=O)Nc3nc(C)c(O)c(C)c32)c1C (stereo unspecified)
